# In US10385069B2, “Imidazo[2,1-B]thiazole and 5,6-dihydroimidazo[2,1-B]thiazole derivatives useful as S100-inhibitors” (Active Biotech AB, priority 2015, dated 2019):
# Biological target: T1, interaction between biotinylated human S100A9 and human RAGE-Fc (Homo sapiens, UniProt P06702)
# T1 construct: made in house; host or cells: E. coli
# T1 sequence (P06702 1-114): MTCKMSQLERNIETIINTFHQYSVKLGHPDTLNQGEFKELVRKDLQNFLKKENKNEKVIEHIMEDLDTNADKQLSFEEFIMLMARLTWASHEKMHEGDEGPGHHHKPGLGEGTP
# Experiment: AlphaScreen inhibition assay, biot-hS100A9:hRAGE-Fc
# Type: binding
# Settings: biot-hS100A9 pre-incubated with compound 1 h, assay buffer with CaCl2 and ZnCl2
# In short: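 Biotinylated human S100A9, preincubated with compound, binds human RAGE-Fc on protein A Acceptor beads in HBS-P with CaCl2 and ZnCl2; streptavidin Donor beads added, AlphaScreen signal read. Protein levels set by cross-titration; beads 20 μg/mL final. Percent inhibition versus DMSO control; IC50 from varied compound concentrations.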
row,IC50 [nM],SMILES
1,360,"CC1(C)Cc2c(sc3nc(C(=O)O)cn23)C1(C)C [Example 36, 4,4,5,5-Tetramethyl-7-thia-1,9-diazatricyclo[6.3.0.0^2,6]undeca-2(6),8,10-triene-10-carboxylic acid]"
2,320,"COCCS(=O)(=O)NC(=O)c1cn2c(n1)sc1c(Cl)c(Cl)ccc12 [Example 23, 9,10-Dichloro-N-(2-methoxyethanesulfonyl)-7-thia-2,5-diazatricyclo[6.4.0.0^2,6]dodeca-1(8),3,5,9,11-pentaene-4-carboxamide]"
3,450,"CC(C)(C)C1CCc2c(sc3nc(C(=O)O)cn23)C1 (stereo not shown) [Example 35, 10-tert-Butyl-7-thia-2,5-diazatricyclo[6.4.0.0^2,6]dodeca-1(8),3,5-triene-4-carboxylic acid]"
4,1360,"CCN(CC)CCCS(=O)(=O)NC(=O)c1cn2c3c(sc2n1)C(C)(C)CC(C)(C)C3 [Example 54, N-[3-(Diethylamino)propanesulfonyl]-9,9,11,11-tetramethyl-7-thia-2,5-diazatricyclo[6.4.0.0^2,6]dodeca-1(8),3,5-triene-4-carboxamide]"
5,510,"CC1(C)Cc2c(sc3nc(C(=O)O)c(C4CC4)n23)C(C)(C)C1 [Example 258, 3-Cyclopropyl-9,9,11,11-tetramethyl-7-thia-2,5-diazatricyclo[6.4.0.0^2,6]dodeca-1(8),3,5-triene-4-carboxylic acid]"
6,340,"CC(C)(C)C1CCc2c(sc3nc(C(=O)NS(C)(=O)=O)cn23)C1 (stereo not shown) [Example 47, 10-tert-Butyl-N-methanesulfonyl-7-thia-2,5-diazatricyclo[6.4.0.0^2,6]dodeca-1(8),3,5-triene-4-carboxamide]"
7,1150,"COc1ccc(-c2c(C(=O)O)nc3sc4c(n23)CC(C)(C)CC4(C)C)cc1 [Example 254, 3-(4-Methoxyphenyl)-9,9,11,11-tetramethyl-7-thia-2,5-diazatricyclo[6.4.0.0^2,6]dodeca-1(8),3,5-triene-4-carboxylic acid]"
8,270,"Cc1c(C(=O)O)nc2sc3c(n12)CC(C)(C)CC3(C)C [Example 245, 3,9,9,11,11-Pentamethyl-7-thia-2,5-diazatricyclo[6.4.0.0^2,6]dodeca-1(8),3,5-triene-4-carboxylic acid]"
9,690,"CC1(C)Cc2c(sc3nc(C(=O)O)c(Br)n23)C(C)(C)C1 [Example 222, 3-Bromo-9,9,11,11-tetramethyl-7-thia-2,5-diazatricyclo[6.4.0.0^2,6]dodeca-1(8),3,5-triene-4-carboxylic acid]"

# More lines, now with the values behind:
row,SMILES,IC50 [nM]
1,"O=C(O)C1(CO)CN2C(=N1)Sc1c2ccc(F)c1Cl (stereo not shown) [Example 263, 9-Chloro-10-fluoro-4-(hydroxymethyl)-7-thia-2,5-diazatricyclo[6.4.0.0^2,6]dodeca-1(8),5,9,11-tetraene-4-carboxylic acid]",1060
2,"C[C@]1(C(=O)O)CN2C(=N1)Sc1c2ccc(F)c1Cl (single isomer, unassigned) [Example 279a]",170
3,"COCCN1CCN(Cc2c(C(=O)O)nc3sc4c(n23)CCC(C(C)(C)C)C4)CC1 (stereo not shown) [Example 272, 10-tert-Butyl-3-{[4-(2-methoxyethyl)piperazin-1-yl]methyl}-7-thia-2,5-diazatricyclo[6.4.0.0^2,6]dodeca-1(8),3,5-triene-4-carboxylic acid]",1770
4,"CC1CCCc2c1sc1nc(C(=O)O)cn21 (stereo not shown) [Example 44, 9-Methyl-7-thia-2,5-diazatricyclo[6.4.0.0^2,6]dodeca-1(8),3,5-triene-4-carboxylic acid]",840
5,"O=C(O)c1cn2c(n1)sc1c(Br)cccc12 [Example 212, 9-Bromo-7-thia-2,5-diazatricyclo[6.4.0.0^2,6]dodeca-1(8),3,5,9,11-pentaene-4-carboxylic acid]",700
6,"O=C(O)c1cn2c(n1)sc1c(OC(F)(F)F)cccc12 [Example 198, 9-(Trifluoromethoxy)-7-thia-2,5-diazatricyclo[6.4.0.0^2,6]dodeca-1(8),3,5,9,11-pentaene-4-carboxylic acid]",1560
7,"O=C(O)c1cn2c(n1)sc1cc(Cl)cc(Cl)c12 [Example 16, 10,12-Dichloro-7-thia-2,5-diazatricyclo[6.4.0.0^2,6]dodeca-1(8),3,5,9,11-pentaene-4-carboxylic acid]",1590
8,"O=C(O)c1cn2c(n1)sc1cc(OCc3ccccc3)ccc12 [Example 208, 10-(Benzyloxy)-7-thia-2,5-diazatricyclo[6.4.0.0^2,6]dodeca-1(8),3,5,9,11-pentaene-4-carboxylic acid]",2260
9,"O=C(O)c1cn2c(n1)sc1c(F)c(Cl)ccc12 [Example 3, 10-Chloro-9-fluoro-7-thia-2,5-diazatricyclo[6.4.0.0^2,6]dodeca-1(8),3,5,9,11-pentaene-4-carboxylic acid]",350
10,"Cc1ccc2c(c1)sc1nc(C(=O)O)cn12 [Example 11, 10-Methyl-7-thia-2,5-diazatricyclo[6.4.0.0^2,6]dodeca-1(8),3,5,9,11-pentaene-4-carboxylic acid]",5020
11,"O=C(O)c1cn2c(n1)sc1c(Cl)c(Cl)c(OCCN3CCOCC3)cc12 [Example 261, 9,10-Dichloro-11-[2-(morpholin-4-yl)ethoxy]-7-thia-2,5-diazatricyclo[6.4.0.0^2,6]dodeca-1(8),3,5,9,11-pentaene-4-carboxylic acid]",550
12,"O=C(O)c1cn2c(n1)sc1c(Cl)c(C3CC3)ccc12 [Example 252, 9-Chloro-10-cyclopropyl-7-thia-2,5-diazatricyclo[6.4.0.0^2,6]dodeca-1(8),3,5,9,11-pentaene-4-carboxylic acid]",290
13,"CS(=O)(=O)NC(=O)Cc1cn2c(n1)sc1c(Cl)c(Cl)ccc12 [Example 30, 2-{9,10-Dichloro-7-thia-2,5-diazatricyclo[6.4.0.0^2,6]dodeca-1(8),3,5,9,11-pentaen-4-yl}-N-methanesulfonylacetamide]",2910
14,"O=C(O)c1cn2c(n1)sc1cc(Cl)ccc12 [Example 8, 10-Chloro-7-thia-2,5-diazatricyclo[6.4.0.0^2,6]dodeca-1(8),3,5,9,11-pentaene-4-carboxylic acid]",2700
15,"Cc1c(C(=O)O)nc2sc3c(n12)CCC(C(C)(C)C)C3 (stereo not shown) [Example 195, 10-tert-Butyl-3-methyl-7-thia-2,5-diazatricyclo[6.4.0.0^2,6]dodeca-1(8),3,5-triene-4-carboxylic acid]",240
16,"COc1c(Cl)ccc2c1sc1nc(C(=O)O)cn12 [Example 217, 10-Chloro-9-methoxy-7-thia-2,5-diazatricyclo[6.4.0.0^2,6]dodeca-1(8),3,5,9,11-pentaene-4-carboxylic acid]",1090
17,"C[C@@]1(C(=O)O)CN2C(=N1)Sc1c2ccc(F)c1Cl (single isomer, unassigned) [Example 279b]",390
18,"O=C(O)c1cn2c(n1)sc1cc(SC(F)(F)F)ccc12 [Example 201, 10-[(Trifluoromethyl)sulfanyl]-7-thia-2,5-diazatricyclo[6.4.0.0^2,6]dodeca-1(8),3,5,9,11-pentaene-4-carboxylic acid]",1470
19,"O=C(O)c1cn2c(n1)sc1cccc(Cl)c12 [Example 7, 12-Chloro-7-thia-2,5-diazatricyclo[6.4.0.0^2,6]dodeca-1(8),3,5,9,11-pentaene-4-carboxylic acid]",2160
